The record followed here is paper PMC7477874, “Targeting L-Proline Uptake as New Strategy for Anti-chagas Drug Development” (Frontiers in Chemistry, 2020).

Series [1] in a line: Solubility observed in the Vero cytotoxicity assay. Particulars: at 50 μM, Vero cytotoxicity assay medium. The format is physicochemical. As for the experimental part: Vero cells are well established model to test cytotoxicity in vitro because it is an aneuploid and a continuous cell linage. […] Compound 3j was not soluble at 50 μM which made not possible to calculate its IC50.

Series [2] relates to L-proline transporter. The experiment in a line: L-Proline transport competition assay in T. cruzi epimastigotes. The format is cell-based, Trypanosoma cruzi. As to conditions: 0.31 mM L-proline (Km), 3.1 mM analog, 30 s. The protocol:
Parasites in exponential growth phase were washed three times by centrifugation and resuspended in phosphate buffered saline (PBS), pH 7.4. Cells were counted in a Neubauer chamber, adjusted with the same buffer to a final density of 200 × 10^6 cells/mL and distributed in aliquots of 100 μL (containing 20 × 10^6 cells each). Transport assays were initiated by the addition to the assay tubes of 100 μL of the desired dilution of L-proline in PBS in the presence of […] of L-[3H] proline. Unless otherwise specified, V0 was measured at 28 °C for 30 s by incorporation of 0.75 and 3 mM L-proline traced with 1 μCi of U-^14C-L-Pro (Perkin Elmer). In all cases, proline transport was stopped by addition of […] of cold 50 mM proline in PBS (pH 7.4), and rapid washing by centrifugation at 10,000x g for 2 min. Background values in each experiment were measured by simultaneous addition of radiolabeled L-proline and stop solution as previously described (Silber et al., [2002]). For the competition assays, the transport experiments were performed as described above using the L-Pro concentration corresponding to the Km (0.31 mM). Those conditions were chosen considering an inhibitory activity by structurally related compounds should be competitive, and so, should be evidenced by a change in the […] at L-Pro concentrations close to the Km. Non-competitive inhibitors, if any, should diminish Vmax, which is measured at 10 x Km L-Pro (3.1 mM) (Silber et al., [2002]). […] The analogs were assayed on T. cruzi epimastigotes incubated with proline at the transporter Km concentration (0.31 mM), and the analogs were assayed at concentration 10-fold higher (3.1 mM). […] The oleyl derivate (3k), with an unsaturated fatty tail, has a similar IC50 on T. cruzi epimastigotes compared to the cetyl analog (3j) showing no inhibition in terms of proline uptake (Table 2).  Figure 4 Proline uptake assay. Pro control = Proline control, Pro comp = L-Proline as competitor. 3i-k and 3n = proline level incubated (*p < 0.05) with selected analogs. Pro control (0.31 mM L-proline, [^3H] proline, PBS). Pro Comp (3.1 mM L-proline, [^3H] proline, PBS). Compounds 3i-k and 3n (0.31 mM L-proline, 3.1 mM analog 3x, [^3H] proline, PBS). Stop solution: 50 mM L-proline added after 30 s.

The subject of series [3] is T. cruzi epimastigotes (CL strain clone 14). The experiment in a line: Growth inhibition assay on T. cruzi epimastigotes. Format: cell-based, Trypanosoma cruzi. As for the experimental part: T. cruzi CL strain clone 14 epimastigotes (Brener and […], [1965]) were maintained in the exponential growth phase by subculturing every 48 h in Liver Infusion Tryptose (LIT) medium supplemented with 10% FCS (Vitrocell, Campinas, São Paulo, Brazil) at 28 °C. T. cruzi epimastigotes in the exponential growth phase (5.0-6.0 x 10^7 cells mL^-1) were cultured in fresh LIT medium. The cells were treated with different concentrations of drugs or not treated (negative control). A combination of Rotenone (60 μM) and Antimycin (0.5 μM) was used as a positive control for inhibition as previously described. (Magdaleno et al., [2009]) The cells (2.5 x 10^6 mL^-1) were transferred to 96-well culture plates and incubated at 28 °C. Cell proliferation was quantified by reading the optical density (OD) at 620 nm for 8 days. The OD was converted to cell density values (cells per mL) using a linear regression equation previously obtained under the same conditions. The concentration of compounds that inhibited 50% of parasite proliferation (IC50) was determined during the exponential growth phase (4 days) by fitting the data to a typical sigmoidal dose-response curve using OriginPro8. The compounds were evaluated in quadruplicate in each experiment. The results shown here correspond to three independent experiments. As a cell growth inhibition control, growth curves in which […] were added to the culture medium were run in parallel for all experiments.

Several values for one entry are separate records, joined by “and”; a condition that tells them apart may be missing. Equal entries are not always repeated.

Consider `CCCCCCCCCCCCCCCCn1cc(CN2CCC[C@H]2C(=O)OC)nn1` [Compound 3j, Methyl ((1-Hexadecyl-1H-1,2,3-Triazol-4-yl)Methyl)-L-Prolinate], for which the melting point (usually the temperature of the solid-liquid transition) is 60 to 60.9 °C. In series [1], the Solubility entry was “not soluble”. Moreover, the “% of Proline inh.” value in series [2] was 20% and 18^# %. For the same compound, the “Times more active than T4C” value in series [3] (T. cruzi epimastigotes, IC50 relative to T4C (890 μM)) is on record as 36. Moreover, the IC50 (commonly the point on the concentration scale where inhibition reaches its midpoint) in series [3] (Trypanosoma cruzi, epimastigotes, unit given as mM, read-out: T. cruzi epimastigotes IC50 (as restated in the discussion)) came to 0.0245 mM.
